# From ChEMBL document CHEMBL1781873, “Synthesis and antibacterial property of pyrrolopyrano quinolinones and pyrroloquinolines” (2011)
# Activity calls are given as the source filed them. The rule behind the calls is not given here.
# Tests used:
# [1] = tested on: Escherichia coli; assay: Antibacterial activity against Escherichia coli at 10 ug after 24 hrs by disc diffusion assay; format: functional; conditions: read-out: IZ
# [2] = tested on: Klebsiella pneumoniae; assay: Antibacterial activity against Klebsiella pneumoniae at 20 ug after 24 hrs by disc diffusion assay; format: functional; conditions: read-out: IZ
# [3] = tested on: Salmonella typhi; assay: Antibacterial activity against Salmonella typhi at 15 ug after 24 hrs by disc diffusion assay; format: functional, Salmonella enterica subsp. enterica serovar Typhi; conditions: Salmonella enterica, read-out: IZ
# [4] = tested on: Escherichia coli; assay: Antibacterial activity against Escherichia coli at 25 ug after 24 hrs by disc diffusion assay; format: functional; conditions: read-out: IZ
# [5] = tested on: Salmonella typhi; assay: Antibacterial activity against Salmonella typhi at 10 ug after 24 hrs by disc diffusion assay; format: functional, Salmonella enterica subsp. enterica serovar Typhi; conditions: Salmonella enterica, read-out: IZ
# [6] = tested on: Staphylococcus aureus; assay: Antibacterial activity against Staphylococcus aureus at 20 ug after 24 hrs by disc diffusion assay; format: functional; conditions: read-out: IZ
# [7] = tested on: Staphylococcus aureus; assay: Antibacterial activity against Staphylococcus aureus after 18 to 20 hrs by broth micro dilution assay; format: functional
# [8] = tested on: Salmonella typhi; assay: Antibacterial activity against Salmonella typhi at 25 ug after 24 hrs by disc diffusion assay; format: functional, Salmonella enterica subsp. enterica serovar Typhi; conditions: Salmonella enterica, read-out: IZ
# [9] = tested on: Escherichia coli; assay: Inhibition of Escherichia coli DNA gyrase -mediated DNA relaxation using pBR322 DNA as substrate at […] after 1 hrs by agarose gel electrophoresis
# [10] = tested on: Escherichia coli; assay: Inhibition of Escherichia coli DNA gyrase assessed as inhibition of DNA supercoiling activity using pBR322 DNA as substrate at […] after 3 hrs by agarose gel electrophoresis
# [11] = tested on: Pseudomonas aeruginosa; assay: Antibacterial activity against Pseudomonas aeruginosa after 18 to 20 hrs by broth micro dilution assay; format: functional
# [12] = tested on: Salmonella typhi; assay: Antibacterial activity against Salmonella typhi at 5 ug after 24 hrs by disc diffusion assay; format: functional, Salmonella enterica subsp. enterica serovar Typhi; conditions: Salmonella enterica, read-out: IZ
# [13] = tested on: Salmonella typhi; assay: Antibacterial activity against Salmonella typhi at 20 ug after 24 hrs by disc diffusion assay; format: functional, Salmonella enterica subsp. enterica serovar Typhi; conditions: Salmonella enterica, read-out: IZ
# [14] = tested on: Bacillus subtilis; assay: Antibacterial activity against Bacillus subtilis at 25 ug after 24 hrs by disc diffusion assay; format: functional; conditions: read-out: IZ
# [15] = tested on: Klebsiella pneumoniae; assay: Antibacterial activity against Klebsiella pneumoniae at 25 ug after 24 hrs by disc diffusion assay; format: functional; conditions: read-out: IZ
# [16] = tested on: Salmonella typhi; assay: Antibacterial activity against Salmonella typhi after 18 to 20 hrs by broth micro dilution assay; format: functional, Salmonella enterica subsp. enterica serovar Typhi; conditions: Salmonella enterica
# [17] = tested on: Klebsiella pneumoniae; assay: Antibacterial activity against Klebsiella pneumoniae at 15 ug after 24 hrs by disc diffusion assay; format: functional; conditions: read-out: IZ
# [18] = tested on: Staphylococcus aureus; assay: Antibacterial activity against Staphylococcus aureus at 15 ug after 24 hrs by disc diffusion assay; format: functional; conditions: read-out: IZ
# [19] = tested on: Staphylococcus aureus; assay: Antibacterial activity against Staphylococcus aureus at 25 ug after 24 hrs by disc diffusion assay; format: functional; conditions: read-out: IZ
# [20] = tested on: Pseudomonas aeruginosa; assay: Antibacterial activity against Pseudomonas aeruginosa at 5 ug after 24 hrs by disc diffusion assay; format: functional; conditions: read-out: IZ
# [21] = tested on: Pseudomonas aeruginosa; assay: Antibacterial activity against Pseudomonas aeruginosa at 25 ug after 24 hrs by disc diffusion assay; format: functional; conditions: read-out: IZ
# [22] = tested on: Klebsiella pneumoniae; assay: Antibacterial activity against Klebsiella pneumoniae at 5 ug after 24 hrs by disc diffusion assay; format: functional; conditions: read-out: IZ
# [23] = tested on: Bacillus subtilis; assay: Antibacterial activity against Bacillus subtilis at 15 ug after 24 hrs by disc diffusion assay; format: functional; conditions: read-out: IZ
# [24] = tested on: Escherichia coli; assay: Antibacterial activity against Escherichia coli after 18 to 20 hrs by broth micro dilution assay; format: functional
# [25] = tested on: Escherichia coli; assay: Antibacterial activity against Escherichia coli at 5 ug after 24 hrs by disc diffusion assay; format: functional; conditions: read-out: IZ
# [26] = tested on: Pseudomonas aeruginosa; assay: Antibacterial activity against Pseudomonas aeruginosa at 20 ug after 24 hrs by disc diffusion assay; format: functional; conditions: read-out: IZ
# [27] = tested on: Staphylococcus aureus; assay: Antibacterial activity against Staphylococcus aureus at 5 ug after 24 hrs by disc diffusion assay; format: functional; conditions: read-out: IZ
# [28] = tested on: Escherichia coli; assay: Inhibition of DNA gyrase mRNA expression in Escherichia coli measured up to 24 hrs by RT-PCR; format: functional, organism-based
# [29] = tested on: Pseudomonas aeruginosa; assay: Antibacterial activity against Pseudomonas aeruginosa at 15 ug after 24 hrs by disc diffusion assay; format: functional; conditions: read-out: IZ
# [30] = tested on: Escherichia coli; assay: Antibacterial activity against Escherichia coli at 15 ug after 24 hrs by disc diffusion assay; format: functional; conditions: read-out: IZ
# [31] = tested on: Escherichia coli; assay: Antibacterial activity against Escherichia coli at 20 ug after 24 hrs by disc diffusion assay; format: functional; conditions: read-out: IZ
# [32] = tested on: Pseudomonas aeruginosa; assay: Antibacterial activity against Pseudomonas aeruginosa at 10 ug after 24 hrs by disc diffusion assay; format: functional; conditions: read-out: IZ
# [33] = tested on: Klebsiella pneumoniae; assay: Antibacterial activity against Klebsiella pneumoniae at 10 ug after 24 hrs by disc diffusion assay; format: functional; conditions: read-out: IZ
# [34] = tested on: Klebsiella pneumoniae; assay: Antibacterial activity against Klebsiella pneumoniae after 18 to 20 hrs by broth micro dilution assay; format: functional
# [35] = tested on: Bacillus subtilis; assay: Antibacterial activity against Bacillus subtilis at 20 ug after 24 hrs by disc diffusion assay; format: functional; conditions: read-out: IZ
# [36] = tested on: Staphylococcus aureus; assay: Antibacterial activity against Staphylococcus aureus at 10 ug after 24 hrs by disc diffusion assay; format: functional; conditions: read-out: IZ
# [37] = tested on: Bacillus subtilis; assay: Antibacterial activity against Bacillus subtilis after 18 to 20 hrs by broth micro dilution assay; format: functional
smiles,measurement,setting,value
CCC1[C@@H]2Nc3ccccc3C(c3ccccc3)[C@H]2CN1OS(=O)(=O)c1ccc(C)cc1 (some centres undefined),zone of inhibition at 10 µg/disc,[1],16 mm
same,zone of inhibition at 20 µg/disc,[2],34 mm
same,zone of inhibition at 15 µg/disc,[3],18 mm
same,zone of inhibition at 25 µg/disc,[4],23 mm
same,zone of inhibition at 10 µg/disc,[5],16 mm
same,zone of inhibition at 20 µg/disc,[6],30 mm
same,MIC50,[7],64 µg/mL
same,MIC90,[7],128 µg/mL
same,zone of inhibition at 25 µg/disc,[8],24 mm
same,inhibition,[9],Active
same,DNA gyrase inhibition (active/inactive),[10],Active
same,MIC50,[11],64 µg/mL
same,MIC90,[11],128 µg/mL
same,zone of inhibition at 5 µg/disc,[12],10 mm
same,zone of inhibition at 20 µg/disc,[13],22 mm
same,zone of inhibition at 25 µg/disc,[14],9 mm
same,zone of inhibition at 25 µg/disc,[15],36 mm
same,MIC50,[16],64 µg/mL
same,MIC90,[16],128 µg/mL
same,zone of inhibition at 15 µg/disc,[17],30 mm
same,zone of inhibition at 15 µg/disc,[18],26 mm
same,zone of inhibition at 25 µg/disc,[19],36 mm
same,zone of inhibition at 5 µg/disc,[20],10 mm
same,zone of inhibition at 25 µg/disc,[21],23 mm
same,zone of inhibition at 5 µg/disc,[22],20 mm
same,zone of inhibition at 15 µg/disc,[23],6 mm
same,MIC50,[24],64 µg/mL
same,MIC90,[24],64 µg/mL
same,zone of inhibition at 5 µg/disc,[25],10 mm
same,zone of inhibition at 20 µg/disc,[26],20 mm
same,zone of inhibition at 5 µg/disc,[27],20 mm
same,inhibition of gyrase mRNA expression (active/not active),[28],inactive
same,zone of inhibition at 15 µg/disc,[29],16 mm
same,zone of inhibition at 15 µg/disc,[30],18 mm
same,zone of inhibition at 20 µg/disc,[31],20 mm
same,zone of inhibition at 10 µg/disc,[32],14 mm
same,zone of inhibition at 10 µg/disc,[33],26 mm
same,MIC50,[34],64 µg/mL
same,MIC90,[34],64 µg/mL
same,zone of inhibition at 20 µg/disc,[35],7 mm
same,zone of inhibition at 10 µg/disc,[36],24 mm
same,MIC50,[37],64 µg/mL
same,MIC90,[37],128 µg/mL
CCC1[C@H]2c3c(n(C)c4ccccc4c3=O)OC(c3ccccc3)[C@@H]2CN1OS(=O)(=O)c1ccc(C)cc1 (mixture of isomers),zone of inhibition at 10 µg/disc,[1],14 mm
same,zone of inhibition at 20 µg/disc,[2],34 mm
same,zone of inhibition at 15 µg/disc,[3],18 mm
same,zone of inhibition at 25 µg/disc,[4],23 mm
same,zone of inhibition at 10 µg/disc,[5],16 mm
same,zone of inhibition at 20 µg/disc,[6],30 mm
same,MIC50,[7],128 µg/mL
same,MIC90,[7],128 µg/mL
same,zone of inhibition at 25 µg/disc,[8],24 mm
same,inhibition,[9],Active
same,DNA gyrase inhibition (active/inactive),[10],Active
same,MIC50,[11],128 µg/mL
same,MIC90,[11],128 µg/mL
same,zone of inhibition at 5 µg/disc,[12],10 mm
same,zone of inhibition at 20 µg/disc,[13],22 mm
same,zone of inhibition at 25 µg/disc,[14],9 mm
same,zone of inhibition at 25 µg/disc,[15],36 mm
same,MIC50,[16],128 µg/mL
same,MIC90,[16],128 µg/mL
same,zone of inhibition at 15 µg/disc,[17],30 mm
same,zone of inhibition at 15 µg/disc,[18],26 mm
same,zone of inhibition at 25 µg/disc,[19],36 mm
same,zone of inhibition at 5 µg/disc,[20],10 mm
same,zone of inhibition at 25 µg/disc,[21],23 mm
same,zone of inhibition at 5 µg/disc,[22],20 mm
same,zone of inhibition at 15 µg/disc,[23],6 mm
same,MIC50,[24],128 µg/mL
same,MIC90,[24],128 µg/mL
same,zone of inhibition at 5 µg/disc,[25],12 mm
same,zone of inhibition at 20 µg/disc,[26],20 mm
same,zone of inhibition at 5 µg/disc,[27],20 mm
same,inhibition of gyrase mRNA expression (active/not active),[28],Active
same,zone of inhibition at 15 µg/disc,[29],16 mm
same,zone of inhibition at 15 µg/disc,[30],16 mm
same,zone of inhibition at 20 µg/disc,[31],22 mm
same,zone of inhibition at 10 µg/disc,[32],14 mm
same,zone of inhibition at 10 µg/disc,[33],26 mm
same,MIC50,[34],128 µg/mL
same,MIC90,[34],128 µg/mL
same,zone of inhibition at 20 µg/disc,[35],7 mm
same,zone of inhibition at 10 µg/disc,[36],24 mm
same,MIC50,[37],128 µg/mL
same,MIC90,[37],128 µg/mL
CCC1[C@@H]2Nc3ccc(Cl)cc3C(C)(C)[C@H]2CN1OS(=O)(=O)c1ccc(C)cc1 (some centres undefined),zone of inhibition at 10 µg/disc,[1],16 mm
same,zone of inhibition at 20 µg/disc,[2],34 mm
same,zone of inhibition at 15 µg/disc,[3],18 mm
same,zone of inhibition at 25 µg/disc,[4],23 mm
same,zone of inhibition at 10 µg/disc,[5],16 mm
same,zone of inhibition at 20 µg/disc,[6],30 mm
same,MIC50,[7],128 µg/mL
same,MIC90,[7],128 µg/mL
same,zone of inhibition at 25 µg/disc,[8],24 mm
same,inhibition,[9],Active
same,DNA gyrase inhibition (active/inactive),[10],Active
same,MIC50,[11],128 µg/mL
same,MIC90,[11],128 µg/mL
same,zone of inhibition at 5 µg/disc,[12],10 mm
same,zone of inhibition at 20 µg/disc,[13],22 mm
same,zone of inhibition at 25 µg/disc,[14],9 mm
same,zone of inhibition at 25 µg/disc,[15],36 mm
same,MIC50,[16],128 µg/mL
same,MIC90,[16],128 µg/mL
same,zone of inhibition at 15 µg/disc,[17],30 mm
same,zone of inhibition at 15 µg/disc,[18],26 mm
same,zone of inhibition at 25 µg/disc,[19],36 mm
same,zone of inhibition at 5 µg/disc,[20],10 mm
same,zone of inhibition at 25 µg/disc,[21],23 mm
same,zone of inhibition at 5 µg/disc,[22],20 mm
same,zone of inhibition at 15 µg/disc,[23],6 mm
same,MIC50,[24],128 µg/mL
same,MIC90,[24],128 µg/mL
same,zone of inhibition at 5 µg/disc,[25],10 mm
same,zone of inhibition at 20 µg/disc,[26],20 mm
same,zone of inhibition at 5 µg/disc,[27],20 mm
same,inhibition of gyrase mRNA expression (active/not active),[28],Active
same,zone of inhibition at 15 µg/disc,[29],16 mm
same,zone of inhibition at 15 µg/disc,[30],18 mm
same,zone of inhibition at 20 µg/disc,[31],20 mm
same,zone of inhibition at 10 µg/disc,[32],14 mm
same,zone of inhibition at 10 µg/disc,[33],26 mm
same,MIC50,[34],128 µg/mL
same,MIC90,[34],128 µg/mL
same,zone of inhibition at 20 µg/disc,[35],7 mm
same,zone of inhibition at 10 µg/disc,[36],24 mm
same,MIC50,[37],128 µg/mL
same,MIC90,[37],128 µg/mL
